Experimental data: patent US8318767B2, “Substituted imidazoles as bombesin receptor subtype-3 modulators” (Merck Sharp & Dohme Corp, priority 2006, dated 2012)
pIC50: −log10 of the molar value.

These compounds were tested against T1, human BRS-3 (Homo sapiens, UniProt P32247) (assay: Bombesin Receptor Subtype 3 (BRS3) radioligand binding assay). Details: selected compounds.
T1 construct: expressed in transfected cells
T1 sequence (P32247 1-399): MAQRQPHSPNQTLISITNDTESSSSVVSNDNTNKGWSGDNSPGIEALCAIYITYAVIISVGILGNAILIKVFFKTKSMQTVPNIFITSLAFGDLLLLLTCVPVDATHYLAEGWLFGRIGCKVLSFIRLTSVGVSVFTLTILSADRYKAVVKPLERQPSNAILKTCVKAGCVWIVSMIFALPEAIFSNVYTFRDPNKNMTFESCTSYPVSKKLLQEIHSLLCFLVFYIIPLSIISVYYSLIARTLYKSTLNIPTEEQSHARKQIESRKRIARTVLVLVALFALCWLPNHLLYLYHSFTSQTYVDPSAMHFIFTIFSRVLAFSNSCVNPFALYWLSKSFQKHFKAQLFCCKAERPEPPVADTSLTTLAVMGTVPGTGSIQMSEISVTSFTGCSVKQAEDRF
Method: Human embryonic kidney (HEK 293) cells expressing human BRS-3 were cultured to confluence and harvested by aspirating the culture medium and rinsing twice with 1×PBS without Mg^++ and Ca^++. Cellstriper Solution (Cellgrow #25-056-C1, 3 mL) was added to each T-175 flask until all cells dissociated and then an additional 15 mL 1×PBS without Mg^++ and Ca^++ were added to each flask. Dissociated cells were collected by centrifuging at 1000 rpm for 10 minutes. Cell pellets were resuspended and homogenized at 4° C. using a Polytron homogenizer (setting 40, 20 stokes) in approximately 10 mL membrane preparation buffer (10 mM Tris pH 7.4, 0.01 mM Pefabloc, 10 μM phosphoramidon and 40 μg/mL Bacitracin) per T175 flask. After centrifugation at 2200 rpm (1000×g) for 10 minutes at 4° C., the supernatant was transferred to a clean centrifuge tube and spun at 18,000 rpm (38,742×g) for 15 minutes. at 4° C. Membranes were resuspended in the above membrane preparation buffer (1 mL/T-175 flask), homogenized, aliquoted, quickly frozen in liquid nitrogen and stored at −80° C.
For the [^125I]-[D-Tyr^6,β-Ala^11,Phe^13,Nle^14]-Bombesin(6-14), “[^125I]-dY-peptide”, radioligand assay the specific binding of [^125I]-dY-peptide to human BRS3 was measured by filtration assay in 96-well plate format. The receptor membrane (2 μg/well) in binding buffer (50 mM Tris pH 7.4, 5 mM MgCl2, 0.1% BSA and protease inhibitor cocktail) was mixed with compound in DMSO (1% final concentration) and 30 pM [^125I]-dY-peptide. After incubation for 1-2 hours at room temperature, membrane-bound [^125I]-dY-peptide was separated from free [^125I]-dY-peptide by filtering through GF/C filters presoaked in 1% PEI solution. The filters were washed five times with ice-cold washing buffer (1×PBS without Mg^++ and Ca^++). The radioactivity was determined by adding 30 μl of microscintillant/well after each plate was dried at room temperature overnight or placed at 50° C. for 1 hr.
The radioligand, [^3H]-1-{4-[(4,5-difluoro-2-hydroxycarbonylphenyl)phenyl]}-2-(4-cyclohexylmethyl-1H-imidazol-2-yl)ethane, was used for binding to receptor membranes generated with BRS3 from rat and mouse and was also utilized for the human receptor. Cell membranes (5 to 20 μg/well) were added to binding buffer (25 mM Tris pH 7.4, 10 mM MgCl2, 2 mM EDTA and protease I cocktail) containing compound in DMSO (1% final concentration) and 660 pM [^3H]-biphenyl. After incubation for 1-2 hours at room temperature, membrane bound [^3H]-biphenyl was separated from free radiologand by filtering through GF/C filters presoaked in 1% PEI solution. The filters were washed five times with ice-cold washing buffer (50 mM Tris pH 7.4, 10 mM MgCl2, 2.5 mM EDTA and 0.02% Triton X-100). The radioactivity was determined by adding 30 μl of microscintillant/well after each plate was dried at room temperature overnight or placed at 50° C. for 1 hr.
A Packard Top Count was used to read the filter plates. The data in % inhibition of binding was plotted vs. the log molar concentration of receptor ligand (compound). The IC50 was reported as the inflection point of the resulting sigmoidal curve.
The binding assays for the rat and mouse Bombesin Receptor Subtype 3 (BRS3) were performed in a similar fashion.
An NFATCHO cell line stably expressing human BRS3 cDNA was generated using standard cell biology techniques and used to prepare receptor membranes for the human “[^125I]-dY-peptide binding assay. The cell line was cultured in T175 flasks in Iscove's Modified Dulbecco's Medium with L-glutamine and 25 mM HEPES buffer (Gibco #12440-046) supplemented with 10% FBS (cat#SH30070.03, Hyclone, Logan, Utah), 1×HT Supplement (0.1 mM Sodium Hypoxanthine and 16 μM Thymidine Gibco #11067-030), 2 mM L-glutamine (Gibco #25030-081), 100 units/mL Penicillin-G and 100 μg/mL Streptomycin (Gibco #15140-122) and 1 mg/mL Geneticin (Gibco #10131-027).

Structure (SMILES) | pIC50
CCC(C)(C)Cc1c[nH]c(C(Cc2ccc(-c3ccc(F)cn3)cc2)NC)n1 (single isomer, unassigned) [Example 6, 1-[4-(2,2-dimethylbutyl)-1H-imidazol-2-yl]-2-[4-(5-fluoropyridin-2-yl)phenyl]-N-methylethanamine] | 6.55
CC(C)(C)Cc1c[nH]c(C(O)Cc2ccc(-c3ccccn3)cc2)n1 (stereo not drawn) [Example 1, 1-[4-(2,2-dimethylpropyl)-1H-imidazol-2-yl]-2-(4-pyridin-2-ylphenyl)ethanol] | 6.92
CCNC(Cc1ccc(-c2ccccn2)cc1)c1nc(CC(C)(C)C)c[nH]1 (stereo not drawn) [Example 3, 1-[4-(2,2-dimethylpropyl)-1H-imidazol-2-yl]-N-ethyl-2-(4-pyridin-2-ylphenyl)ethanamine] | 6.61
CC(=O)NC(Cc1ccc(-c2ccc(F)cn2)cc1)c1nc(CC(C)(C)C)c[nH]1 (stereo not drawn) [Example 9, N-{1-[4-(2,2-dimethylpropyl)-1H-imidazol-2-yl]-2-[4-(5-fluoropyridin-2-yl)phenyl]ethyl}acetamide] | 6.66
CC(C)(C)Cc1c[nH]c(C(C)(O)Cc2ccc(-c3ccc(F)cn3)cc2)n1 (stereo not drawn) [Example 15, 2-[4-(2,2-dimethylpropyl)-1H-imidazol-2-yl]-1-[4-(5-fluoropyridin-2-yl)phenyl]propan-2-ol] | 6.72
CC(C)(C)Cc1c[nH]c(C(O)Cc2ccc(-c3ccc(F)cn3)cc2)n1 (stereo not drawn) [Example 18, 1-[4-(2,2-dimethylpropyl)-1H-imidazol-2-yl]-2-[4-(5-fluoropyridin-2-yl)phenyl]ethanol] | 6.96
CCC(C)(C)Cc1c[nH]c(C(C)(O)Cc2ccc(-c3ccc(F)cn3)cc2)n1 (stereo not drawn) [Example 29, 2-[4-(2,2-dimethylbutyl)-1H-imidazol-2-yl]-1-[4-(5-fluoropyridin-2-yl)phenyl]propan-2-ol] | 7.24
CC(C)(C)Cc1c[nH]c(C(C)(O)Cc2ccc(-n3cccn3)cc2)n1 (stereo not drawn) [Example 33, 2-[4-(2,2-dimethylpropyl)-1H-imidazol-2-yl]-1-[4-(1H-pyrazol-1-yl)phenyl]propan-2-ol] | 6.71
CCC(C)(C)Cc1c[nH]c(C2(Cc3ccc(-c4ccc(F)cn4)cc3)CCCN2)n1 (stereo not drawn) [Example 55, 2-[4-({2-[4-(2,2-dimethylbutyl)-1H-imidazol-2-yl]pyrrolidin-2-yl}methyl)phenyl]-5-fluoropyridine] | 8.29
